US9023789B2, “Amylin analogs and pharmaceutical compositions thereof” (Novo Nordisk A/S, priority 2012, dated 2015)
Read-outs that look alike come from different tables or passages of the source. Numbered stars: 1 amine (or outer) side, 2 acyl side, 3 side chain; on linkers, the order of the positions; unused ones are H or OH. Bridge positions count the residues as written; N and C are the ends. Side chains are listed from the residue outwards. Peptide text beside a SMILES is read from it. * marks the point of attachment. C20 diacid = O=C(O)CCCCCCCCCCCCCCCCCCC(=O)*; γGlu = O=C(O)[C@H](CCC(=O)[*:2])N[*:1]; AEEA = NCCOCCOCC(=O)O

Tests used:
[1] = ASSAY (III) ThT fibrillation assay for physical stability; assay type: physicochemical
How it was run: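 Formulations with 1 μM ThT, pH adjusted as required, incubated at 37 °C with 960 rpm orbital shaking; fluorescence (ex 444/em 485 nm) read every 20 min. Fibrillation reported as mean ThT fluorescence ± SD of 4–8 replicates at time points; polypeptide concentration measured by reverse-phase HPLC before and after, post-centrifugation.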

[2] = molecular target: T1, rat amylin receptor (rat calcitonin receptor + rat RAMP 3) (Rattus norvegicus, UniProt P32214+Q9JJ73); assay: ASSAY (VI) binding to the rat amylin receptor
T1 construct: expressed in transfected cells; host or cells: BHK tk'ts 13 (transient, FuGENE 6), membranes
T1 sequence (P32214 25-479 isoform P32214-2 limits assumed): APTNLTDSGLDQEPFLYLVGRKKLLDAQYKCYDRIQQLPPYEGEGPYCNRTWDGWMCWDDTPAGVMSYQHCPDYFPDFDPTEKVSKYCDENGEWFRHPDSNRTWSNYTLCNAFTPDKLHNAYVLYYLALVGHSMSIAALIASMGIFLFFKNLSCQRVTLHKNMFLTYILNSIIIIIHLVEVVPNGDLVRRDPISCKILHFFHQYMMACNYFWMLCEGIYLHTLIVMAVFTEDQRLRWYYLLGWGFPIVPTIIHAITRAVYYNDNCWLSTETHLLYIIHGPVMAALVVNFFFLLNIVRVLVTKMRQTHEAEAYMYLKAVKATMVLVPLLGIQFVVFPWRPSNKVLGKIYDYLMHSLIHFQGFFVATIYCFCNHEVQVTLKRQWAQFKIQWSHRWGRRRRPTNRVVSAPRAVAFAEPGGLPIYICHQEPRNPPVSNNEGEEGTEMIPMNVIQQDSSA
T1 sequence (Q9JJ73 23-147 partner): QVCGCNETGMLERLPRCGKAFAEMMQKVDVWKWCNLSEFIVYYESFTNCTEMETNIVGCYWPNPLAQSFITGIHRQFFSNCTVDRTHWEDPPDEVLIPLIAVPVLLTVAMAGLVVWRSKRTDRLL
How it was run: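 Binding to the rat amylin receptor was determined with membrane preparations. The receptor was expressed by transiently transfecting BHK tk′ts 13 cells with rat calcitonin receptor, using FuGENE® 6 (Roche) according to the manufacturer's recommendations. Roughly 48 hours later the cells were harvested and their membranes isolated.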

[3] = Table 7, binding to rat amylin receptor, read-out: rAmylin-R bind IC50
[4] = Table 7, rat binding selectivity, rCTR IC50 / rAmylin-R IC50
[5] = Table 7a (preferred compounds), rat binding selectivity, rCTR IC50 / rAmylin-R IC50
[6] = ratio of rCTR bind IC50 to rAmylin-R bind IC50

Compound | ThT pH 4.0 lag time (h) [1] | IC50 [2, 3] | Ratio rCT/rAmylin binding [2, 4] | Ratio rCT/rAmylin binding [2, 5] | Ratio rCT/rAmylin binding [2, 6] | IC50 [2]
CC[C@H](C)[C@H](NC(=O)[C@H](C)NC(=O)CNC(=O)[C@H](Cc1ccccc1)NC(=O)[C@H](CC(N)=O)NC(=O)[C@@H]1CCCN1C(=O)[C@H](CO)NC(=O)[C@H](CO)NC(=O)[C@H](Cc1c[nH]cn1)NC(=O)[C@H](CCCNC(=N)N)NC(=O)[C@H](CC(C)C)NC(=O)[C@H](Cc1ccccc1)NC(=O)[C@H](Cc1c[nH]cn1)NC(=O)[C@H](C)NC(=O)[C@H](CC(C)C)NC(=O)[C@H](CCCNC(=N)N)NC(=O)[C@H](CCC(N)=O)NC(=O)[C@@H](NC(=O)[C@H](C)NC(=O)[C@@H]1CSSC[C@H](NC(=O)[C@@H](N)CCCCNC(=O)CC[C@H](NC(=O)CCCCCCCCCCCCCCCCCCC(=O)O)C(=O)O)C(=O)N[C@@H](CC(N)=O)C(=O)N[C@@H]([C@@H](C)O)C(=O)N[C@@H](C)C(=O)N[C@@H]([C@@H](C)O)C(=O)N1)[C@@H](C)O)C(=O)N1CCC[C@H]1C(=O)N[C@@H](CO)C(=O)N[C@@H](CO)C(=O)N[C@H](C(=O)N[C@@H](CC(N)=O)C(=O)N[C@H](C(=O)NCC(=O)N[C@@H](CO)C(=O)N[C@@H](Cc1c[nH]cn1)C(=O)N[C@H](C(=O)N[C@@H](Cc1ccc(O)cc1)C(N)=O)[C@@H](C)O)C(C)C)[C@@H](C)O [Example 66] (H-K([γGlu-C20 diacid])CNTATCATQRLAHFLRHSSPNFGAIPSSTNVGSHTY-NH2; disulfide 2-7; N-terminus assumed) | 45 h | 581 pM | 35.8 | 35.8 | 35.8 | –
CC[C@H](C)[C@H](NC(=O)[C@H](C)NC(=O)CNC(=O)[C@H](Cc1ccccc1)NC(=O)[C@H](CC(N)=O)NC(=O)[C@@H]1CCCN1C(=O)[C@H](CO)NC(=O)[C@H](CO)NC(=O)[C@H](Cc1c[nH]cn1)NC(=O)[C@H](CCCNC(=N)N)NC(=O)[C@H](CC(C)C)NC(=O)[C@H](Cc1ccccc1)NC(=O)[C@H](CC(N)=O)NC(=O)[C@H](C)NC(=O)[C@H](CC(C)C)NC(=O)[C@H](CCCNC(=N)N)NC(=O)[C@H](CCC(N)=O)NC(=O)[C@@H](NC(=O)[C@H](C)NC(=O)[C@@H]1CSSC[C@H](NC(=O)[C@@H](N)CCCCNC(=O)COCCOCCNC(=O)CC[C@H](NC(=O)CCCCCCCCCCCCCCCCCCC(=O)O)C(=O)O)C(=O)N[C@@H](CC(N)=O)C(=O)N[C@@H]([C@@H](C)O)C(=O)N[C@@H](C)C(=O)N[C@@H]([C@@H](C)O)C(=O)N1)[C@@H](C)O)C(=O)N1CCC[C@H]1C(=O)N[C@@H](CO)C(=O)N[C@@H](CO)C(=O)N[C@H](C(=O)N[C@@H](CC(N)=O)C(=O)N[C@H](C(=O)NCC(=O)N1CCC[C@H]1C(=O)N[C@@H](CC(N)=O)C(=O)N[C@H](C(=O)N[C@@H](Cc1ccc(O)cc1)C(N)=O)[C@@H](C)O)C(C)C)[C@@H](C)O [Example 50] | 2 h | 69 pM | 81.7 | 81.7 | 81.7 | –
CC[C@H](C)[C@H](NC(=O)[C@H](C)NC(=O)CNC(=O)[C@H](Cc1ccccc1)NC(=O)[C@H](CC(N)=O)NC(=O)[C@@H]1CCCN1C(=O)[C@H](CO)NC(=O)[C@H](CO)NC(=O)[C@H](Cc1c[nH]cn1)NC(=O)[C@H](CCCNC(=N)N)NC(=O)[C@H](CC(C)C)NC(=O)[C@H](Cc1ccccc1)NC(=O)[C@H](Cc1c[nH]cn1)NC(=O)[C@H](C)NC(=O)[C@H](CC(C)C)NC(=O)[C@H](CCCNC(=N)N)NC(=O)[C@H](CCC(N)=O)NC(=O)[C@@H](NC(=O)[C@H](C)NC(=O)[C@@H]1CSSC[C@H](NC(=O)[C@@H](N)CCCCNC(=O)CC[C@H](NC(=O)CCCCCCCCCCCCCCCCCCC(=O)O)C(=O)O)C(=O)N[C@@H](CC(N)=O)C(=O)N[C@@H]([C@@H](C)O)C(=O)N[C@@H](C)C(=O)N[C@@H]([C@@H](C)O)C(=O)N1)[C@@H](C)O)C(=O)N1CCC[C@H]1C(=O)N[C@@H](CO)C(=O)N[C@@H](CO)C(=O)N[C@H](C(=O)N[C@@H](CC(N)=O)C(=O)N[C@H](C(=O)NCC(=O)N[C@@H](CO)C(=O)N[C@@H](CC(N)=O)C(=O)N[C@H](C(=O)N[C@@H](Cc1ccc(O)cc1)C(N)=O)[C@@H](C)O)C(C)C)[C@@H](C)O [Example 70] (H-K([γGlu-C20 diacid])CNTATCATQRLAHFLRHSSPNFGAIPSSTNVGSNTY-NH2; disulfide 2-7; N-terminus assumed) | 7 h | 355 pM | 96.5 | 96.5 | 96.5 | –
CC[C@H](C)[C@H](NC(=O)[C@H](C)NC(=O)CNC(=O)[C@H](Cc1ccccc1)NC(=O)[C@H](CC(N)=O)NC(=O)[C@@H]1CCCN1C(=O)[C@H](CO)NC(=O)[C@H](CO)NC(=O)[C@H](Cc1c[nH]cn1)NC(=O)[C@H](CCCNC(=N)N)NC(=O)[C@H](CC(C)C)NC(=O)[C@H](Cc1ccccc1)NC(=O)[C@H](CO)NC(=O)[C@H](C)NC(=O)[C@H](CC(C)C)NC(=O)[C@H](CCCNC(=N)N)NC(=O)[C@H](CCC(N)=O)NC(=O)[C@@H](NC(=O)[C@H](C)NC(=O)[C@@H]1CSSC[C@H](NC(=O)[C@@H](N)CCCCNC(=O)COCCOCCNC(=O)CC[C@H](NC(=O)CCCCCCCCCCCCCCCCCCC(=O)O)C(=O)O)C(=O)N[C@@H](CC(N)=O)C(=O)N[C@@H]([C@@H](C)O)C(=O)N[C@@H](C)C(=O)N[C@@H]([C@@H](C)O)C(=O)N1)[C@@H](C)O)C(=O)N1CCC[C@H]1C(=O)N[C@@H](CO)C(=O)N[C@@H](CO)C(=O)N[C@H](C(=O)N1CCC[C@H]1C(=O)N[C@H](C(=O)NCC(=O)N[C@@H](CO)C(=O)N[C@@H](CC(N)=O)C(=O)N[C@H](C(=O)N[C@@H](Cc1ccc(O)cc1)C(N)=O)[C@@H](C)O)C(C)C)[C@@H](C)O [Example 73] (H-K([AEEA-γGlu-C20 diacid])CNTATCATQRLASFLRHSSPNFGAIPSSTPVGSNTY-NH2; disulfide 2-7 (inferred)) | 12 h | – | 177.7 | 177.7 | 177.7 | 283 pM
CC[C@H](C)[C@H](NC(=O)[C@H](C)NC(=O)CNC(=O)[C@H](Cc1ccccc1)NC(=O)[C@H](CC(N)=O)NC(=O)[C@@H]1CCCN1C(=O)[C@H](CO)NC(=O)[C@H](CO)NC(=O)[C@H](Cc1c[nH]cn1)NC(=O)[C@H](CCCNC(=N)N)NC(=O)[C@H](CC(C)C)NC(=O)[C@H](Cc1ccccc1)NC(=O)[C@H](C)NC(=O)[C@H](C)NC(=O)[C@H](CC(C)C)NC(=O)[C@H](CCCNC(=N)N)NC(=O)[C@H](CCC(N)=O)NC(=O)[C@@H](NC(=O)[C@H](C)NC(=O)[C@@H]1CSSC[C@H](NC(=O)[C@@H](N)CCCCNC(=O)COCCOCCNC(=O)CC[C@H](NC(=O)CCCCCCCCCCCCCCCCCCC(=O)O)C(=O)O)C(=O)N[C@@H](CC(N)=O)C(=O)N[C@@H]([C@@H](C)O)C(=O)N[C@@H](C)C(=O)N[C@@H]([C@@H](C)O)C(=O)N1)[C@@H](C)O)C(=O)N1CCC[C@H]1C(=O)N[C@@H](CO)C(=O)N[C@@H](CO)C(=O)N[C@H](C(=O)N1CCC[C@H]1C(=O)N[C@H](C(=O)NCC(=O)N[C@@H](CO)C(=O)N[C@@H](CC(N)=O)C(=O)N[C@H](C(=O)N[C@@H](Cc1ccc(O)cc1)C(N)=O)[C@@H](C)O)C(C)C)[C@@H](C)O [Example 72] (H-K([AEEA-γGlu-C20 diacid])CNTATCATQRLAAFLRHSSPNFGAIPSSTPVGSNTY-NH2; disulfide 2-7 (inferred); N-terminus assumed) | 13 h | 851 pM | 259.3 | 259.3 | 259.3 | –
